# Test results reported in ChEMBL document CHEMBL1201862, “PubChem BioAssay data set” (2004).
# Calls of active or inactive are those of the source.
# Tests used:
# [1] = target: Ras and Rab interactor 1/Tyrosine-protein kinase ABL1 (Homo sapiens, UniProt P00519+Q13671); assay type: functional;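 also: biochemical TR-FRET dose-response test measuring inhibition of binding between Rin1 and Abl proteins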
# [2] = viability loss in HepG2 liver cells – cell-based, ATP luminescence, cherry-pick, set 6, cytotoxicity control, dose response (AID 1053125); assay type: functional
# [3] = target: T1, Low molecular weight phosphotyrosine protein phosphatase (Homo sapiens, UniProt P24666); assay type: functional; conditions: read-out: IC50_Mean;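 also: Dose-response confirmation assay measuring inhibition of LMPTP enzyme activity by fluorescence intensity read-out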
# T1 sequence (P24666 whole entry): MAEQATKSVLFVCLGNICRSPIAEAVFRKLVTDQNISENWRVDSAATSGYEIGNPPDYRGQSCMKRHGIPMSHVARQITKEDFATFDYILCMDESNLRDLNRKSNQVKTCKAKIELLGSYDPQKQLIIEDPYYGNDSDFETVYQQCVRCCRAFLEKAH
# Protein Wnt-3a = Protein Wnt-3a (Mus musculus, UniProt P27467); assay: antagonism of Wnt3a pathway luciferase reporter – Wnt-LIGHT cells, luminescence, selectivity assay for Gli-SUFU antagonist project, dose response (AID 651570); assay type: functional; conditions: read-out: IC50_Mean;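 also: Wnt-LIGHT reporter cells stimulated with conditioned medium from Wnt3a-producing cells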
# Protein Wnt-3a, sequence (P27467 whole entry): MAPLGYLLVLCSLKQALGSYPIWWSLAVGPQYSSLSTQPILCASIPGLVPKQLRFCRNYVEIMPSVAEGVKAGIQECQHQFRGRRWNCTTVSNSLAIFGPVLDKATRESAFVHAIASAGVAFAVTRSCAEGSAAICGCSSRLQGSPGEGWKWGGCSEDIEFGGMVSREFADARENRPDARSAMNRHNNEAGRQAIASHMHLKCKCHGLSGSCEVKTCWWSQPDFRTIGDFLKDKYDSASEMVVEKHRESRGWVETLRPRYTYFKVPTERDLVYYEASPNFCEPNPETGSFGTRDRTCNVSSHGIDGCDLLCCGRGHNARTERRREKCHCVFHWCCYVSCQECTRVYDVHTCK
# [4] = Luminescence Cell-Based Dose Retest to Confirm Inhibitors of Cancer Stem Cells. [Related pubchem assays (depositor defined):AID2717, AID2721]; assay type: functional; conditions: Homo sapiens
# Streptococcus = assay: GAS UMAA2166 growth inhibition – luminescence, BacTiterGlo, counter-screen for streptokinase expression inhibitor project, dose response (AID 1915); assay type: functional, organism-based;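 also: potency for reduction of bacterial viability or growth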
# [5] = system: Streptococcus sp. 'group A'; assay: Streptococcus pyogenes SK(-)GAS viability under kanamycin – luminescence, BacTiterGlo, confirmation, counter-screen for streptokinase expression inhibitor project, dose response (AID 1900); assay type: functional, organism-based
# [6] = target: DNA (cytosine-5)-methyltransferase 1 (Homo sapiens, UniProt P26358); assay: inhibition of DNA methylation by DNMT1 – biochemical, fluorescent molecular beacon, confirmation (AID 602386); assay type: functional
# [7] = target: T2, Sentrin-specific protease 7 (Homo sapiens, UniProt Q9BQF6); assay: inhibition of human SENP7 cleavage activity – biochemical, luminescence, SAR follow-up (AID 504497); assay type: functional
# T2 sequence (Q9BQF6 whole entry): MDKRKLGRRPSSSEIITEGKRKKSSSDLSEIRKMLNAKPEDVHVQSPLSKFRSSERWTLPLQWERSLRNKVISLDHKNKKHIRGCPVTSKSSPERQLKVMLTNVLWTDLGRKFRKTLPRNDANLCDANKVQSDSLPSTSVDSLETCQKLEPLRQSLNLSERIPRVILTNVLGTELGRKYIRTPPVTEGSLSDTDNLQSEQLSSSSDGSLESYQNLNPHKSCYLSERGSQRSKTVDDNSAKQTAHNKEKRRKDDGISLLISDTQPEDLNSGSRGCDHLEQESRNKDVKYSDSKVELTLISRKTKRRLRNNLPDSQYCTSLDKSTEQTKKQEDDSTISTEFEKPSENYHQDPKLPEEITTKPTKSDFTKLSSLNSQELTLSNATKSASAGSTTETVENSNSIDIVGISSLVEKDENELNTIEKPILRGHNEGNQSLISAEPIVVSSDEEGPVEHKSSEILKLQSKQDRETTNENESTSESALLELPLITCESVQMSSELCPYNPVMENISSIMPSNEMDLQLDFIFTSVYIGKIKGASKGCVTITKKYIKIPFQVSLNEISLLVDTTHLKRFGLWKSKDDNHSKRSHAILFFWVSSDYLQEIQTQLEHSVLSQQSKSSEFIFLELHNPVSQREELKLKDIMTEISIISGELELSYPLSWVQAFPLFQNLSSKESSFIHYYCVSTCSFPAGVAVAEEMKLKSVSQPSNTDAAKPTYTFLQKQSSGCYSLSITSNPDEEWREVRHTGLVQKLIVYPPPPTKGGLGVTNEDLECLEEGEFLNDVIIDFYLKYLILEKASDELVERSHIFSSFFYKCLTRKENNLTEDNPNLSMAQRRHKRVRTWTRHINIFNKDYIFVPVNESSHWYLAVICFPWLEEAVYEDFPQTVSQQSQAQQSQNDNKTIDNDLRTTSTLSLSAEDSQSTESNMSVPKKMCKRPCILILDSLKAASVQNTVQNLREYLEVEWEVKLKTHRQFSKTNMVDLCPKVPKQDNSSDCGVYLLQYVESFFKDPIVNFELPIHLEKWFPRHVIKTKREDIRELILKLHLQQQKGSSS
# Caspase-3 = target: T3, Caspase-3 (Homo sapiens, UniProt P42574); assay: SAR Analysis of small molecule inhibitors of Sentrin-specific proteases (SENPs) using a Caspase-3 Selectivity assay. [Related pubchem assays (depositor defined):AID2540, AID2599, AID434973, AID489001]; assay type: functional
# T3 sequence (P42574 whole entry): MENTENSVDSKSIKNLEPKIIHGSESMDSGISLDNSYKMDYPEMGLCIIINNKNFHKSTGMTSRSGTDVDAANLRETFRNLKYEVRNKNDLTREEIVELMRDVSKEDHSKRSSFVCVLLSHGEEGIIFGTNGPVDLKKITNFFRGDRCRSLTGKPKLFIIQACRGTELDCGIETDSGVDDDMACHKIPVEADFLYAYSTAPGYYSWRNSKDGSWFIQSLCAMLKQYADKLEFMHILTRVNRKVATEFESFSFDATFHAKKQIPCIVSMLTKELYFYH
# [8] = target: T4, Sentrin-specific protease 6 (Homo sapiens, UniProt Q9GZR1); assay: SAR Analysis of small molecule inhibitors of Sentrin-specific protease 6 (SENP6) using a Luminescent assay. [Related pubchem assays (depositor defined):AID2582, AID2599]; assay type: functional
# T4 sequence (Q9GZR1 whole entry): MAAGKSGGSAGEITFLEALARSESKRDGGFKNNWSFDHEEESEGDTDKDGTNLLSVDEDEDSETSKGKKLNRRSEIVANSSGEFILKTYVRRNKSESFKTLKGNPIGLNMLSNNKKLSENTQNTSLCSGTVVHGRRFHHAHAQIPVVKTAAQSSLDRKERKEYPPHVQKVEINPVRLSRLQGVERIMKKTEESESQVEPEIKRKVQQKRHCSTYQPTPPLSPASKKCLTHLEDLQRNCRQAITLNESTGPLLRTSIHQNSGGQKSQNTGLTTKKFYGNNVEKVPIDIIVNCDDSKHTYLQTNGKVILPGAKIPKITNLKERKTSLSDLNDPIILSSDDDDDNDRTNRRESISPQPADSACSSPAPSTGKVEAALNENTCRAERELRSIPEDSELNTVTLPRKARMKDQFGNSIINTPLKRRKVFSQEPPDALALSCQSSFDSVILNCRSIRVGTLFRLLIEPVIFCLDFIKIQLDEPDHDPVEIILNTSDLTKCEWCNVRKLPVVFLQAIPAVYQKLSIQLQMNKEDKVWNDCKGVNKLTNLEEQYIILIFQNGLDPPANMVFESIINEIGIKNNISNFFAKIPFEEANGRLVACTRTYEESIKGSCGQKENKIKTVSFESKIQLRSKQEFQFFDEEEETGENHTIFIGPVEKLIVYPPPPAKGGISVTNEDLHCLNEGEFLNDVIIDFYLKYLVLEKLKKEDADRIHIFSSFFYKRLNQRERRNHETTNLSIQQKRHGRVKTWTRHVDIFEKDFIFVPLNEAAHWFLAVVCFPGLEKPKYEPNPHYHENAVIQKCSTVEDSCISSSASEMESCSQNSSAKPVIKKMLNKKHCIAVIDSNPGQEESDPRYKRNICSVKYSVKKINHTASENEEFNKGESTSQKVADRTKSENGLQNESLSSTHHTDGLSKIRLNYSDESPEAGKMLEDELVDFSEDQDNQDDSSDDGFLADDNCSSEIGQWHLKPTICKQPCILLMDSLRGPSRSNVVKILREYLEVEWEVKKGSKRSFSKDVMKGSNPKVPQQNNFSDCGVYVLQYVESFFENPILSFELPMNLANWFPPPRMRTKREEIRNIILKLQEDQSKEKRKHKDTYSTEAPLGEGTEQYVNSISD
# [9] = target: T5, Sentrin-specific protease 8 (Homo sapiens, UniProt Q96LD8); assay: inhibition of human SENP8 cleavage activity – biochemical, luminescence, SAR follow-up (AID 504501); assay type: functional
# T5 sequence (Q96LD8 whole entry): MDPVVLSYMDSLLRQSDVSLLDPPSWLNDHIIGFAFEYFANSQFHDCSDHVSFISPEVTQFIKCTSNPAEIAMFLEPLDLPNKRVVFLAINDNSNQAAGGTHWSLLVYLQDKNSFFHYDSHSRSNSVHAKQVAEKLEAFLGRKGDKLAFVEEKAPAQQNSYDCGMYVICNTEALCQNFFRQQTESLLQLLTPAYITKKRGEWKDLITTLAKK
# [10] = target: T6, RNA-binding protein pos-1 (Caenorhabditis elegans, UniProt G5EF15); assay: disruptors of C. elegans POS-1 RNA interaction – biochemical, fluorescence polarization, dose response (AID 1964);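 also: purified POS-1 fused to maltose binding protein made in E. coli; potency of compounds blocking POS-1 binding to fluorescent RNA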
# T6 sequence (G5EF15 whole entry): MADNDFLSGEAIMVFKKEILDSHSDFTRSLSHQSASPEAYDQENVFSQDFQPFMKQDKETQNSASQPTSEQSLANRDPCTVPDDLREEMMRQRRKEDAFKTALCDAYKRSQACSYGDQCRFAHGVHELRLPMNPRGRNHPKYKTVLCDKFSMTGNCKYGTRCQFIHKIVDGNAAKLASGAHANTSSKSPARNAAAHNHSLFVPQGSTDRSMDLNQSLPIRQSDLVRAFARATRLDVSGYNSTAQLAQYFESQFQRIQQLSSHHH
# [11] = target: Hepatocyte nuclear factor 4-alpha (Homo sapiens, UniProt P41235); assay type: functional, cell-based;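 also: biochemical luminescence-based dose-response counterscreen measuring inhibition of HNF4 dimerization, run alongside a screen for blockers of ABHD5–perilipin-5 interaction; split luciferase complementation of HNF4 fusion proteins in cell lysate measuring dimerization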
# Hepatocyte nuclear factor 4-alpha, sequence (P41235 whole entry, the tested form may be a part): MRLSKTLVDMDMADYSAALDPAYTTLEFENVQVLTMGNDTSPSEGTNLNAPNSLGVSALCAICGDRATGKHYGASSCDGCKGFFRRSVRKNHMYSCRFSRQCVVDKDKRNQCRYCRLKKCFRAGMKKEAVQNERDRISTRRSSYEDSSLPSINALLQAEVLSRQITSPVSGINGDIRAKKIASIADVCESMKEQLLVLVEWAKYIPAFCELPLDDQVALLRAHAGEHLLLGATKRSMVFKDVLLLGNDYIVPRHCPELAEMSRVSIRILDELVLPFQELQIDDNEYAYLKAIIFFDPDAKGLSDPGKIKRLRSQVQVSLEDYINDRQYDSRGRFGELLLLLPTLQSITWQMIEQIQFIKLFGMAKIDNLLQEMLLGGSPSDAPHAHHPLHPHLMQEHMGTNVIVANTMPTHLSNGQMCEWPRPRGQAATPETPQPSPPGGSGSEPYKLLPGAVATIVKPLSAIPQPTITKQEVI
# Genome polyprotein = Genome polyprotein (dengue virus type 2, UniProt P29990); assay: flavivirus cap methylation enzyme inhibition – biochemical, confirmation dose response, primary screen (AID 588689); assay type: functional
# Genome polyprotein, sequence (P29990 2492-3391 limits assumed): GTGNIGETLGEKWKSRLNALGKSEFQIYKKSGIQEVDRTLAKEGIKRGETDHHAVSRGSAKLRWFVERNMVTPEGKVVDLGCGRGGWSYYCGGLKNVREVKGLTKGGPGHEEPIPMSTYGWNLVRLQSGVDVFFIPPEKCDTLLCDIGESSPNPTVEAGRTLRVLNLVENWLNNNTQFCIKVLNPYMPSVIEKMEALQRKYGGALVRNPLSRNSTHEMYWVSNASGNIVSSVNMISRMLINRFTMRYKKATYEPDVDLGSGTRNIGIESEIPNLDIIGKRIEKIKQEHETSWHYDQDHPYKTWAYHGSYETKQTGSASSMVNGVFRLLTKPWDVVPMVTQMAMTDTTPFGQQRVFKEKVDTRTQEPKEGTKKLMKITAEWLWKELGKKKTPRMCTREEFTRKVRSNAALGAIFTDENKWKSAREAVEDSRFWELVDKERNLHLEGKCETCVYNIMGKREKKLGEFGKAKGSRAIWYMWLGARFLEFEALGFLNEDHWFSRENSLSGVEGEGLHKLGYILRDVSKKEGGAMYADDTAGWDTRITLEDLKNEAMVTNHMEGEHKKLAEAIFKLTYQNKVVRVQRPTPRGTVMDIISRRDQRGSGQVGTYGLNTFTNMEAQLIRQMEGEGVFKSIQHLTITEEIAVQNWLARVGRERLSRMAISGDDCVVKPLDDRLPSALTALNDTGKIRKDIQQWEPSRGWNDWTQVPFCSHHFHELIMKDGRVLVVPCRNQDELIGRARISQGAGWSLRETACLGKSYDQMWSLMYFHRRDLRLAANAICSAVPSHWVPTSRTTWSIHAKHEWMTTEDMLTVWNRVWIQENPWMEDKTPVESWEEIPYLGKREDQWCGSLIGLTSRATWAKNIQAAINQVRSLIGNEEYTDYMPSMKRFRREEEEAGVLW
# [12] = target: T7, Zinc finger protein mex-5 (Caenorhabditis elegans, UniProt Q9XUB2); assay: potency of MEX-5 RNA-binding blockers – biochemical, C. elegans, fluorescence polarization, dose response (AID 1960)
# T7 sequence (Q9XUB2 whole entry): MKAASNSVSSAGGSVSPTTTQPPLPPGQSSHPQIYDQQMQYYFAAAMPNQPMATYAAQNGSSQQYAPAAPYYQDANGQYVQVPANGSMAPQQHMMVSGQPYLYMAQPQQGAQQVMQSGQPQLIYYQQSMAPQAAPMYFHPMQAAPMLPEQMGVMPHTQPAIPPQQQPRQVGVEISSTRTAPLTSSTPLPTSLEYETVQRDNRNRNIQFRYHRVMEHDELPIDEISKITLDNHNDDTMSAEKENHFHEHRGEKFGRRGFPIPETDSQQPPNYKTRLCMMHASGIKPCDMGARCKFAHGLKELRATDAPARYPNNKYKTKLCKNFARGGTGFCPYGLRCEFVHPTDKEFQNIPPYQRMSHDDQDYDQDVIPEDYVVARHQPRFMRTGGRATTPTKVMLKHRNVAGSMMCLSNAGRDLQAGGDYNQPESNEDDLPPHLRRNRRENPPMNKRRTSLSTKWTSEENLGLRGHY
# Protein skinhead-1 = target: T8, Protein skinhead-1 (Caenorhabditis elegans, UniProt P34707); assay type: functional
# T8 sequence (P34707 whole entry): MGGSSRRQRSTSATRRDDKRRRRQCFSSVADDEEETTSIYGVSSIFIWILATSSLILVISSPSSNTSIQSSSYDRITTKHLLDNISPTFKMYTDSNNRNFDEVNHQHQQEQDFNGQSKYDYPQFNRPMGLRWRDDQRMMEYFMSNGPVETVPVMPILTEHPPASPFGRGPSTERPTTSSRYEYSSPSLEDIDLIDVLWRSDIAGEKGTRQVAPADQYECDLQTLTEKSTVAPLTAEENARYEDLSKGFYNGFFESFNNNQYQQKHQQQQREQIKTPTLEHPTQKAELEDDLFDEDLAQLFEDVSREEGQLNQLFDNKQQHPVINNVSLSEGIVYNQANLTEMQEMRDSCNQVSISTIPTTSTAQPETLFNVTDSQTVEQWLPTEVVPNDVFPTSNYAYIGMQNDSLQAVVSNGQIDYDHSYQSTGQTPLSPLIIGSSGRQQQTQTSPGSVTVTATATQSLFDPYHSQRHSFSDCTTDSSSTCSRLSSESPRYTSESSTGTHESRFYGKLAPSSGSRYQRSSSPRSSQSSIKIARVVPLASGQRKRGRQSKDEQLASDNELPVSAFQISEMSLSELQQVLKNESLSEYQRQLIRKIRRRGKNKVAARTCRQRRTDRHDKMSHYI
# Ras and Rab interactor 1/Tyrosine-protein kinase ABL1, sequence (P00519 whole entry): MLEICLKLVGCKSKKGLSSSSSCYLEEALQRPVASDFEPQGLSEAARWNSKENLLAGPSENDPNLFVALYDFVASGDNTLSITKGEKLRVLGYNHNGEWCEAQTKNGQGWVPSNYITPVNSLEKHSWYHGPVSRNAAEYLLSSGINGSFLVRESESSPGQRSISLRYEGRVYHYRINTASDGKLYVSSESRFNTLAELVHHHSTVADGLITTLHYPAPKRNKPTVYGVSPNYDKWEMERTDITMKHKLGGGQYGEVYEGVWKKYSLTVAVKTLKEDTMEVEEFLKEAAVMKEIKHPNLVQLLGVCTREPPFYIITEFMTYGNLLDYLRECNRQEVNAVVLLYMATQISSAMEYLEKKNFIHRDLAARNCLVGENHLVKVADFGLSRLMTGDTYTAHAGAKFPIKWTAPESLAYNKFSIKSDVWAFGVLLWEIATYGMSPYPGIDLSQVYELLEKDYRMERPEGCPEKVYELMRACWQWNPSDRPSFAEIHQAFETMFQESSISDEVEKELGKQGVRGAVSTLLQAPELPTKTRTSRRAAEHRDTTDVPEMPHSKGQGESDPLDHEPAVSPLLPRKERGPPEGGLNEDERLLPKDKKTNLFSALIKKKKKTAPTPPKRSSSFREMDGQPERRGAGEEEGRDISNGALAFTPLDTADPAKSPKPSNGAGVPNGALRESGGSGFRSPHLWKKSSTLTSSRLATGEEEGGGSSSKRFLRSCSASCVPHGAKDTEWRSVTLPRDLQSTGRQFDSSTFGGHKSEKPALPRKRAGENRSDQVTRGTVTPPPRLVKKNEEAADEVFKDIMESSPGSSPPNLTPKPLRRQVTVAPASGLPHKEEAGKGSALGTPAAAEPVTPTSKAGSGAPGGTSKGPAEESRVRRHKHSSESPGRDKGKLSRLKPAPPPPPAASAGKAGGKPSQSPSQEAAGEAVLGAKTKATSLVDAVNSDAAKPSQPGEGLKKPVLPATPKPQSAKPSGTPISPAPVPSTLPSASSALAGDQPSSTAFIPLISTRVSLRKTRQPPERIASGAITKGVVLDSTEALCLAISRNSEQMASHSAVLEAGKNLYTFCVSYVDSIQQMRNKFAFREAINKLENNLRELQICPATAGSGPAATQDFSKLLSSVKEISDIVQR
# Ras and Rab interactor 1/Tyrosine-protein kinase ABL1, sequence (Q13671 whole entry): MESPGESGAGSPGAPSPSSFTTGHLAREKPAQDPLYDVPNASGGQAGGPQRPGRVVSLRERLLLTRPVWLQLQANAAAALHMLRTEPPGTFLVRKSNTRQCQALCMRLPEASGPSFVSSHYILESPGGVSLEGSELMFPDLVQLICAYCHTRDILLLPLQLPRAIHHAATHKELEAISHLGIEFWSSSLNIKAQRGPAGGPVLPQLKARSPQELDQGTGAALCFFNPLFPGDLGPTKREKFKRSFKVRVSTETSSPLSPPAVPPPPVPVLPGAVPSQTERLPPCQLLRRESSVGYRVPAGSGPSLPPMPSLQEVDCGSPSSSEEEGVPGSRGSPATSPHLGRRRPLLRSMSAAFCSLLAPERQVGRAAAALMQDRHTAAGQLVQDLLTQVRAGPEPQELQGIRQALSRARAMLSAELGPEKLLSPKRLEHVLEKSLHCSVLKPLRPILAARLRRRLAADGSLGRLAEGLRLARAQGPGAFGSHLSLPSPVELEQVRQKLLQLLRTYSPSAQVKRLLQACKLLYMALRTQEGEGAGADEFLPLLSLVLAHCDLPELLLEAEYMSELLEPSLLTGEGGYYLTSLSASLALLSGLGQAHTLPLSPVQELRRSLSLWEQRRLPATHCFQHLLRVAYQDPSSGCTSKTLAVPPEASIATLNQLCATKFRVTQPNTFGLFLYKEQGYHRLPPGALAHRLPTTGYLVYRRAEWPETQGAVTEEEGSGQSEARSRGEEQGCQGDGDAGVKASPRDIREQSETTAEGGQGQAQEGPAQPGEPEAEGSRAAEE
structure (smiles),measurement,setting,value
COc1ccccc1CN1C[C@@H]2C[C@@H](c3ccc4nsnc4c3)N3CCC[C@@]23C1=O,IC50,[1],22.3 µM (inactive)
Cc1ccc2nc3c(cc(C(=O)NCc4ccccc4)c(=N)n3CCCn3ccnc3)c(=O)n2c1,AC50,[2],48 µM (active)
same,IC50,[3],29.8 µM (inactive)
CCn1c(/C=C/Nc2ccccc2)[n+](CC)c2cc(Cl)ccc21,IC50,Protein Wnt-3a,26.3 µM (inactive)
CSCCC(c1nnnn1C1CCCCC1)N1CCC(n2c(O)nc3ccccc32)CC1 (stereo not drawn),IC50,[1],6.82 µM (active)
CC(C)COc1ccc(-c2nn(-c3ccccc3)cc2/C=C2/SC(=S)N(CC(=O)O)C2=O)cc1,AC50,[4],2.87 µM (active)
same,EC50,Streptococcus,4.38 µM (active)
same,EC50,[5],2.85 µM (active)
same,IC50,[6],5.58 µM (active)
COC(=O)c1nn(-c2ccccc2)c2c1C(c1ccc(OC)cc1)(C(F)(F)F)N/C(=N\c1ccc(C)cc1)O2 (stereo not drawn),IC50,[7],> 99 µM (inactive)
same,IC50,Caspase-3,> 99 µM (inactive)
same,IC50,[8],> 99 µM (inactive)
same,IC50,[9],> 99 µM (inactive)
COc1cccc2sc(NC(=O)c3ccc(S(=O)(=O)N(C)C4CCCC4)cc3)nc12,IC50,[7],> 99 µM (inactive)
same,IC50,Caspase-3,> 99 µM (inactive)
same,IC50,[8],> 99 µM (inactive)
same,IC50,[9],> 99 µM (inactive)
COc1ccc(NC(=S)N2CCC(Cc3ccccc3)CC2)cc1,IC50,Protein Wnt-3a,25.5 µM (inactive)
COC/C=C/C1=CC2=CC(=O)C(C)(OC(=O)C3CCCC3)C(=O)C2=CO1 (stereo not drawn),EC50,[10],> 300 µM (not active)
same,IC50,[11],11.4 µM (inactive)
same,IC50,Genome polyprotein,90.2 µM (active)
same,EC50,[12],> 300 µM (not active)
same,IC50,Protein skinhead-1,> 100 µM (inactive)
